The nature of assay [1]: Inhibition of Leishmania major strain Friedlin endogenous GSK3 using Biotin-labeled GSP-2 peptide substrate after 90 mins in presence of [gamma33-P]ATP by scintillation proximity assay. In general terms: In a scintillation proximity assay essentially only radioactivity close to the scintillant gives light.
The target in assay [2] is T1, Dual specificity protein kinase CLK1 (Homo sapiens, UniProt P49759). Kind of assay: Inhibition of human CLK1 (148 to 484 residues) expressed in Escherichia coli BL21(DE3) preincubated for 10 mins followed by AFRREWSPGKEAKK substrate addition by pyruvate kinase and lactate dehydrogenase coupled enzyme assay.
T1 sequence (P49759 whole entry, the tested form may be a part): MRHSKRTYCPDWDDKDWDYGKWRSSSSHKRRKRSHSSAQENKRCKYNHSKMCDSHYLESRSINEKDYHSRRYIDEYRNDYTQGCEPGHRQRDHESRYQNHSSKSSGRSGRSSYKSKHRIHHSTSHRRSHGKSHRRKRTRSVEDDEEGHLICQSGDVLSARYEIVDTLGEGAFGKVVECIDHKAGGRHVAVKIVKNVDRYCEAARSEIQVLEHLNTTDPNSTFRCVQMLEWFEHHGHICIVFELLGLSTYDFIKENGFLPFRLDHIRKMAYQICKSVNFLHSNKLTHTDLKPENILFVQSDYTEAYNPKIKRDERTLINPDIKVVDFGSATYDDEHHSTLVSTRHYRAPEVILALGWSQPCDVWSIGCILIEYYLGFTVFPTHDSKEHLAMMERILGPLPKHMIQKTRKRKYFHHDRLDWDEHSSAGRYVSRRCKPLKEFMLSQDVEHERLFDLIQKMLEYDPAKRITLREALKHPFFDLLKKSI
Assay [3] in a line: Inhibition of Leishmania infantum MHOM/BR/82/BA-2 N-terminal His6-tagged GSK3 expressed in Escherichia coli BL21(DE3) using Biotin-labeled GSP-2 peptide substrate after 90 mins in presence of [gamma33-P]ATP by scintillation proximity assay.
Assay [4] is described as follows: Inhibition of Leishmania major strain Friedlin fusion protein GSK3 using Biotin-labeled GSP-2 peptide substrate after 90 mins in presence of [gamma33-P]ATP by scintillation proximity assay.
A short description of assay [5]: Inhibition of Trypanosoma brucei GSK3 using Biotin-labeled GSP-2 peptide substrate after 90 mins in presence of [gamma33-P]ATP by scintillation proximity assay.
A short description of assay [6]: Inhibition of Leishmania major strain Friedlin N-terminal His6-tagged GSK3 expressed in Escherichia coli BL21(DE3) using Biotin-labeled GSP-2 peptide substrate after 90 mins in presence of [gamma33-P]ATP by scintillation proximity assay.
Assay [7] has as its target Glycogen synthase kinase-3 (Homo sapiens, UniProt P49840+P49841). Kind of assay: Inhibition of GSK3 alpha/beta (unknown origin) using substrate after 30 mins in presence of [gamma-33P]ATP by liquid scintillation counting. It counts as protein assay.
Assay [8] can be described thus: Inhibition of GSK3 (unknown origin) using substrate after 30 mins in presence of [gamma-33P]ATP by liquid scintillation counting. Further details: species or system Homo sapiens.
For assay [9], the target named is T1, Dual specificity protein kinase CLK1. Kind of assay: Inhibition of human CLK1 using substrate after 30 mins in presence of [gamma-33P]ATP by liquid scintillation counting.
Assay [10] concerns the target CDK9/cyclin T1 (Homo sapiens, UniProt P50750). Kind of assay: Inhibition of CDK9/CyclinT (unknown origin) using substrate after 30 mins in presence of [gamma-33P]ATP by liquid scintillation counting. It counts as protein-complex assay.
The target of assay [11] is Dual specificity tyrosine-phosphorylation-regulated kinase 1A (Homo sapiens, UniProt Q13627). As to the kind of experiment: Inhibition of DYRK1A (unknown origin) using substrate after 30 mins in presence of [gamma-33P]ATP by liquid scintillation counting.
The target of assay [12] is Vascular endothelial growth factor receptor 2 (Homo sapiens, UniProt P35968). Kind of assay: Inhibition of VEGFR2 (unknown origin) using substrate after 30 mins in presence of [gamma-33P]ATP by liquid scintillation counting.
Chain of Vascular endothelial growth factor receptor 2 (P35968 whole entry): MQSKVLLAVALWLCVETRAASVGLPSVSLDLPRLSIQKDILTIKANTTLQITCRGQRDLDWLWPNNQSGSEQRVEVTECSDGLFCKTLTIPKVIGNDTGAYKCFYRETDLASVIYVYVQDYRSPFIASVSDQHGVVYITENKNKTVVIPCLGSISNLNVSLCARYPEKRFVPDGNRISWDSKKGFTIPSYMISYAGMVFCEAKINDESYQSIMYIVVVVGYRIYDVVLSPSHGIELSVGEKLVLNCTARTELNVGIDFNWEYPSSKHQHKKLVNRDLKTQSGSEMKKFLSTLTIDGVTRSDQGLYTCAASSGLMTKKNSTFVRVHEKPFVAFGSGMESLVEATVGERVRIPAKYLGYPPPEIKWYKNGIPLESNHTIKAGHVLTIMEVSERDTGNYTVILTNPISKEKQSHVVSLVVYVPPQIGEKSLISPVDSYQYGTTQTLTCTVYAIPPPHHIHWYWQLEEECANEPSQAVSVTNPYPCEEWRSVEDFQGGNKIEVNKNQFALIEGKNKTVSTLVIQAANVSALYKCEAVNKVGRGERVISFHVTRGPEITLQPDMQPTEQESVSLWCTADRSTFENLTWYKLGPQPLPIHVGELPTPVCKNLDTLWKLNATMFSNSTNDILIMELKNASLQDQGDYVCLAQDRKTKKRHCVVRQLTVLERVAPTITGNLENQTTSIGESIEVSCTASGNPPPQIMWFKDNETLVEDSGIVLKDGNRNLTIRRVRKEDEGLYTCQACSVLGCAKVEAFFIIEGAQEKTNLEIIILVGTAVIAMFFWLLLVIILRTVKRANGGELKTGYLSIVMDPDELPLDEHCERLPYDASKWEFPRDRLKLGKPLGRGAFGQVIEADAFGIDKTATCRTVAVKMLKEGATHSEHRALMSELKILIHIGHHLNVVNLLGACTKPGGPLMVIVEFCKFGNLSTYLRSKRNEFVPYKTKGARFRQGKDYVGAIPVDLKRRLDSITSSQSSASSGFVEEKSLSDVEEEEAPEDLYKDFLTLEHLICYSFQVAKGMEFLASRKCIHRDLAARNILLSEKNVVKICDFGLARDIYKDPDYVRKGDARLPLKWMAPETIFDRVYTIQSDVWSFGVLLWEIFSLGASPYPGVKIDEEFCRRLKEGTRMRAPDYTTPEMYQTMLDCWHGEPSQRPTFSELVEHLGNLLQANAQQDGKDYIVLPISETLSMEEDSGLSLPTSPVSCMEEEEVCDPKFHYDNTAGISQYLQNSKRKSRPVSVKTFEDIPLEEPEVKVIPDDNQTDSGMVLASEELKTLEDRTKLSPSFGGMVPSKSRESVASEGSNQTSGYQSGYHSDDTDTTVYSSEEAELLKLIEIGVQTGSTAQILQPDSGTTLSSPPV

Molecules are shown by their SMILES. pIC50: −log10 of the molar value.

Chain of CDK9/cyclin T1 (O60563 whole entry): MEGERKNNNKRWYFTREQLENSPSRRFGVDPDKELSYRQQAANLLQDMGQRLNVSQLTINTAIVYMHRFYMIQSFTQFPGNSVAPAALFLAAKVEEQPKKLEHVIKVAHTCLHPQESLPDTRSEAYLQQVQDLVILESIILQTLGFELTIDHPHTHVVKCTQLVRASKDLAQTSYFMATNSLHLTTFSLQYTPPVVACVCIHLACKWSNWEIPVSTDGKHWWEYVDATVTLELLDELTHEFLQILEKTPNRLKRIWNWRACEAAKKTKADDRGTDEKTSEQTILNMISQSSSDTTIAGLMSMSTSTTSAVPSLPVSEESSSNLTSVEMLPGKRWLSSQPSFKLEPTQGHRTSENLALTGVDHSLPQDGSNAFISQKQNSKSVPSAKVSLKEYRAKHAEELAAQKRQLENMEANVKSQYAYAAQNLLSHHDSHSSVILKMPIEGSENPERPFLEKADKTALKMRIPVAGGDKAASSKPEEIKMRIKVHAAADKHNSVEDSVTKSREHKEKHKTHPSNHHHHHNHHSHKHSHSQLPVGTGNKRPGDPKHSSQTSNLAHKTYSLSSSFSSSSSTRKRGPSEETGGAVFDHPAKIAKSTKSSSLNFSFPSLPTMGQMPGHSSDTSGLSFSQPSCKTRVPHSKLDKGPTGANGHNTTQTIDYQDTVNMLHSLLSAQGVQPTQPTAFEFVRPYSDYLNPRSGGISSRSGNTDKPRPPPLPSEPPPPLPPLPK
Chain of CDK9/cyclin T1 (P50750 whole entry): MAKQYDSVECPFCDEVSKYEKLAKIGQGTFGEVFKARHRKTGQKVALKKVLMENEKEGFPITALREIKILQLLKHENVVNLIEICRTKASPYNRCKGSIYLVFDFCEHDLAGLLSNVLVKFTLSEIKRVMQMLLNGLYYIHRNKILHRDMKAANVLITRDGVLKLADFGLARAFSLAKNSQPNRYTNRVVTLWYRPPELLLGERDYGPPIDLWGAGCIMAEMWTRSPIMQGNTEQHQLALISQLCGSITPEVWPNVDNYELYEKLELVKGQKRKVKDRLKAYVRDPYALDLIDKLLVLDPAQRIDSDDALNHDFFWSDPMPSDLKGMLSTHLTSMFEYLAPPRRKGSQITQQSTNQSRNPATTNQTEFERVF

For `Nc1nc(Nc2ccc(S(N)(=O)=O)cc2)nn1C(=S)Nc1c(F)cccc1F`, the pIC50 (commonly −log10 of the IC50, conventionally taken in molar units) in assay [1] is 6.74; in [2], 8.05; in assay [3], 6.59; in assay [4] it was 6.82; in assay [5], 6.92; in assay [6], 6.49.

Consider `CCS(=O)(=O)c1ccc(OC)c(Nc2ncc(/C=C/c3ccccc3)o2)c1`, for which the IC50 (in general, the concentration at which inhibition is half-maximal) in assay [7] stood at 7500 nM. Besides, the pIC50 in [8] was 5.40; in assay [9], 7.40; in [10], 6.70; in assay [11], 5.15.

As to `CCS(=O)(=O)c1ccc(OC)c(Nc2ncc(-c3cc4ccccc4s3)o2)c1`, the figures for the pIC50 in assay [9] and in [11] were 7.52 and 6.30, respectively.

As to `CCS(=O)(=O)c1ccc(OC)c(Nc2ncc(-c3ccc(CC#N)c(-c4ccccn4)c3)o2)c1`, the results for the negative logarithm of the IC50 (pIC50) in assay [12] and in assay [9] were 7.64 and 7.10, respectively.

With `CCS(=O)(=O)c1ccc(OC)c(Nc2ncc(-c3ccc4cc(OC)ccc4c3)o2)c1`, the negative logarithm of the IC50 (pIC50) in assay [9] is 7.70; in [11], 6.00.

The values above are taken from ChEMBL document CHEMBL4002585, “Novel CLK1 inhibitors based on N-aryloxazol-2-amine skeleton - A possible way to dual VEGFR2 TK/CLK ligands” (Eur J Med Chem, 2017).
